ChEMBL document CHEMBL1145032, “Effects of heterocyclic aromatic substituents on binding affinities at two distinct sites of somatostatin receptors. Correlation with the electrostatic potential of the substituents” (J Med Chem, 2003)

What was measured:
[1] = pKHB (hydrogen bond basicity of the heterocycle) was determined
[2] = target: T1, Somatostatin receptor type 4 (Homo sapiens, UniProt P31391); experiment: Tested for binding affinity at human Somatostatin receptor type 4 using ([3-125I-Tyr11)]-SRIF-14 as the radioligand
T1 sequence (P31391 whole entry): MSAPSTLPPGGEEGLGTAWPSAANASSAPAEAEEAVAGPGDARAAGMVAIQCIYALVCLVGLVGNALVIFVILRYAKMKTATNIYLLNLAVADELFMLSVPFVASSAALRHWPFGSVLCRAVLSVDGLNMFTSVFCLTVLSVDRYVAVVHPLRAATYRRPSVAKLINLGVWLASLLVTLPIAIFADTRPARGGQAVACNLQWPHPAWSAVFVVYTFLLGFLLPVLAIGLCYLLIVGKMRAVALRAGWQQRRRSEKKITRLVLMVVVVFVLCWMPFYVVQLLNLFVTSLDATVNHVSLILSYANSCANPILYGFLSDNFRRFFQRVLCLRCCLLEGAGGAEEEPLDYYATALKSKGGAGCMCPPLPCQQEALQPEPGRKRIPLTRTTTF

[3] = pKa was determined; assay type: physicochemical
[4] = target: Substance-P receptor (Homo sapiens, UniProt P25103); experiment: Binding affinity against Tachykinin receptor 1
Chain of Substance-P receptor (P25103 whole entry): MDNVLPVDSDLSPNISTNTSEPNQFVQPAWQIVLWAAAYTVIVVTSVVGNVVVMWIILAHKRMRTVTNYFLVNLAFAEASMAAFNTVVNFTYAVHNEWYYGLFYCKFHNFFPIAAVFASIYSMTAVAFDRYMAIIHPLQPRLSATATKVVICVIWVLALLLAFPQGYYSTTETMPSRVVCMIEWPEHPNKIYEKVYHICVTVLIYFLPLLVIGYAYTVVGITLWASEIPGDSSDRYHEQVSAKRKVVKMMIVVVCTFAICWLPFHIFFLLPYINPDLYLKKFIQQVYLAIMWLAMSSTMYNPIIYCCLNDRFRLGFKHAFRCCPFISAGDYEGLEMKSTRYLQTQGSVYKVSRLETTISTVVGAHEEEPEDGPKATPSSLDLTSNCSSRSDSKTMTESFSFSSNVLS

[5] = target: Somatostatin receptor type 2 (Homo sapiens, UniProt P30874); experiment: Inhibitory concentration required against human Somatostatin receptor type 2
Chain of Somatostatin receptor type 2 (P30874 whole entry): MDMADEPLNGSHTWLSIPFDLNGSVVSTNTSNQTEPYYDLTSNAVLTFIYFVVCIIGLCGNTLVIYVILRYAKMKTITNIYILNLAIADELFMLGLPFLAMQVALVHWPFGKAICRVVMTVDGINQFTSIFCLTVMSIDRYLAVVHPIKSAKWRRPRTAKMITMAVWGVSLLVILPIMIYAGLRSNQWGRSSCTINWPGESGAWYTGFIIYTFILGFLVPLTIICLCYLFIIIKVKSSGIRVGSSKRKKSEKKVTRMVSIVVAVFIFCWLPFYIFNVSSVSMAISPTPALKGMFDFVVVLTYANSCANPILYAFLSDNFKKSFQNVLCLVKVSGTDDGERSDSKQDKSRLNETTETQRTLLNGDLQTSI

[6] = target: T1, Somatostatin receptor type 4; experiment: Inhibitory concentration required against human Somatostatin receptor type 4

Row | SMILES | pKHB [1] | Ki [2] | pKa [3] | Ki [4] | IC50 [5] | IC50 [6]
1 | NCCCCCOC[C@H]1O[C@@H](OCCc2c[nH]c3ccccc23)[C@H](OCc2ccccc2)[C@@H](OCc2ccccc2)[C@@H]1OCc1cnccn1 | 1.95 | 260 nM | 0.7 |  |  | 
2 | NCCCCCOC[C@H]1O[C@@H](OCCc2c[nH]c3ccccc23)[C@H](OCc2ccccc2)[C@@H](OCc2ccccc2)[C@@H]1OCc1ccccc1 |  | 1650 nM |  | 150 nM |  | 
3 | NCCCCCOC[C@H]1O[C@@H](OCCc2c[nH]c3ccccc23)[C@H](OCc2ccccc2)[C@@H](OCc2ccccc2)[C@@H]1OCc1cccnc1 | 1.86 | 360 nM | 5.2 |  |  | 
4 | CC(=O)NCCCCCOC[C@H]1O[C@@H](OCCc2c[nH]c3ccccc23)[C@H](OCc2ccccc2)[C@@H](OCc2ccccc2)[C@@H]1O |  |  |  | 27 nM |  | 
5 | NCCCCCOC[C@H]1O[C@@H](OCCc2c[nH]c3ccccc23)[C@H](OCc2ccccc2)[C@@H](OCc2ccccc2)[C@@H]1OCc1ccccn1 | 1.86 | 890 nM | 5.2 |  |  | 
6 | NCCCCCOC[C@H]1O[C@@H](OCCc2c[nH]c3ccccc23)[C@H](OCc2ccccc2)[C@@H](OCc2ccccc2)[C@@H]1OCc1ccc(Cl)nc1 |  | 1200 nM | 0.5 |  |  | 
7 | Cc1ccc(CO[C@H]2[C@H](OCc3ccccc3)[C@@H](OCc3ccccc3)[C@H](OCCc3c[nH]c4ccccc34)O[C@@H]2COCCCCCN)cn1 | 1.05 | 1260 nM | 6.1 |  |  | 
8 | NCCCCCOC[C@H]1O[C@@H](OCCc2c[nH]c3ccccc23)[C@H](OCc2ccccc2)[C@@H](OCc2ccccc2)[C@@H]1OCc1ccc(F)nc1 | 0.95 | 680 nM | -0.4 |  |  | 
9 | NCCCCCOC[C@H]1O[C@@H](OCCc2c[nH]c3ccccc23)[C@H](OCc2cnc[nH]2)[C@@H](OCc2ccccc2)[C@@H]1OCc1cccnc1 |  | 53 nM |  |  | 2250 nM | 53 nM
10 | NCCCCCOC[C@H]1O[C@@H](OCCc2c[nH]c3ccccc23)[C@H](OCc2ccccc2)[C@@H](OCc2ccccc2)[C@@H]1OCc1ccncc1 | 1.86 | 570 nM | 5.2 |  |  | 
11 | NCCCCCOC[C@H]1O[C@@H](OCCc2c[nH]c3ccccc23)[C@H](OCc2ccccc2)[C@@H](OCc2ccccc2)[C@@H]1OCc1c[nH]cn1 | 2.03 | 1040 nM | 7.2 |  |  | 
12 | NCCCCCOC[C@@H]1O[C@H](OCCc2c[nH]c3ccccc23)[C@H](OCc2cnc[nH]2)C(OCc2ccccc2)[C@H]1OCCc1cccnc1 (single isomer, unassigned; (+)) |  |  |  |  |  | 800 nM
13 | NCCCCCOC[C@@H]1O[C@H](OCCc2c[nH]c3ccccc23)[C@H](OCc2cnc[nH]2)C(OCc2ccccc2)[C@H]1OCc1ccccc1 (single isomer, unassigned; (+)) |  | 100 nM |  |  | 800 nM | 100 nM
